Where only a bound is given, the exact number is not on record here.

For series [1], the target named is T1, 5-hydroxytryptamine receptor 1B (Homo sapiens, UniProt P28222). The series is described as follows: Binding affinity towards human 5-hydroxytryptamine 1B receptor.
The target in series [2] is T2, Alpha-1A adrenergic receptor (Homo sapiens, UniProt P35348).
T2 sequence (P35348 whole entry): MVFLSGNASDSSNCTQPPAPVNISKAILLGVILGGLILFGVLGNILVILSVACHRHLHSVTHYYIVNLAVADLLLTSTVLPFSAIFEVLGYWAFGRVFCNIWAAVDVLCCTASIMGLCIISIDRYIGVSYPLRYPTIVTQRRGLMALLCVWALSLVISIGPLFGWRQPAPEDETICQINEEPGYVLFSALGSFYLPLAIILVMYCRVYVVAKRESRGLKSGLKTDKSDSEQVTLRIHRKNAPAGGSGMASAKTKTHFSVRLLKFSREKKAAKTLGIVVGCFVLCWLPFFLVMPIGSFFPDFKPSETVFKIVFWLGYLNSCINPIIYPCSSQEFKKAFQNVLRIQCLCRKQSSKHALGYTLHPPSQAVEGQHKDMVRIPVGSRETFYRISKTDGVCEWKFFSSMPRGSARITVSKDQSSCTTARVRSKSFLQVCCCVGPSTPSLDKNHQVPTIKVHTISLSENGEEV
The series is described as follows: Binding affinity towards human Alpha-1 adrenergic receptor.

The species named for series [3] is Cavia porcellus. The series is described as follows: Compound was tested for serotonergic activity on […] induced by electrical stimulation in guinea-pigs.
For another series, the species on record is Oryctolagus cuniculus. The series is described as follows: Agonistic activity tested in isolated rabbit saphenous vein. The class given is functional.
Series [4] in a line: Total plasma clearance in rat at a dose of 5 mg/kg. Details: dose 5 mg/kg. The conditions noted are these: read-out: Total clearance. The format is ADME, organism-based.
Series [5] deals with T3, Muscarinic acetylcholine receptor M4 (Homo sapiens) (UniProt P08173).
T3 sequence (whole entry): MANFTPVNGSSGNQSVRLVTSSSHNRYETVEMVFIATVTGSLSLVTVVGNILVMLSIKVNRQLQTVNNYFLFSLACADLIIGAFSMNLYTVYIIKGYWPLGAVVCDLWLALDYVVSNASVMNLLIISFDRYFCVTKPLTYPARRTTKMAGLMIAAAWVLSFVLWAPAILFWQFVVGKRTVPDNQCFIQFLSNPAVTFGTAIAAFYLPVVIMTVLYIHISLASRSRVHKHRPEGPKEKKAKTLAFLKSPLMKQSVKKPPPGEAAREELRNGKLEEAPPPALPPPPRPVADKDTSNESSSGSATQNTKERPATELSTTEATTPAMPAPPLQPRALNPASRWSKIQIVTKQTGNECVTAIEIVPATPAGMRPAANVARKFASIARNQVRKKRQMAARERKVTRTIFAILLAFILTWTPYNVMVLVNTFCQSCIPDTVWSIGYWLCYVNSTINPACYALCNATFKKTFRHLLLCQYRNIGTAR
The series can be described thus: Inhibitory activity against human Muscarinic acetylcholine receptor M4 at 1000 nM.

Series [6] can be described thus: Volume of distribution of compound in rat body tissue at a dose of 5 mg/kg. Details: dose 5 mg/kg. As to conditions: in vivo. The format is ADME, organism-based.
A short description of series [7]: Oral bioavailability in rat (dose 5 mg/kg). The conditions noted are these: in vivo. The format is ADME, organism-based.
A short description of series [8]: Plasma half-life in rat at a dose of 5 mg/kg. The format is ADME, organism-based. Also noted: dose 5 mg/kg.
The target in series [9] is Serotonin 1 receptors; 5-HT1B & 5-HT1D (Homo sapiens) (UniProt P28222+P28221). The series can be described thus: Ratio of 5-hydroxytryptamine 1B receptor to that of 5-hydroxytryptamine 1D receptor was determined. The format is protein assay.
The test system of series [10] is Cavia porcellus. The series can be described thus: Compound was tested for serotonergic activity on […] induced by electrical stimulation in guinea-pigs (3-7 nM/kg).
Series [11] has as its target T4, 5-hydroxytryptamine receptor 1D (Homo sapiens, UniProt P28221). The series is described as follows: Binding affinity towards human 5-hydroxytryptamine 1D receptor.
For series [12], the target named is T1, 5-hydroxytryptamine receptor 1B. The conditions noted are these: 1000 nM.
Description: Percent displacement of radioligand from human 5-hydroxytryptamine 1B receptor at 1000 nM
Series [13] deals with T4, 5-hydroxytryptamine receptor 1D. The conditions noted are these: 1000 nM.
Description: Percent displacement of radioligand from human 5-hydroxytryptamine 1D receptor at 1000 nM

T1 sequence (P28222 whole entry): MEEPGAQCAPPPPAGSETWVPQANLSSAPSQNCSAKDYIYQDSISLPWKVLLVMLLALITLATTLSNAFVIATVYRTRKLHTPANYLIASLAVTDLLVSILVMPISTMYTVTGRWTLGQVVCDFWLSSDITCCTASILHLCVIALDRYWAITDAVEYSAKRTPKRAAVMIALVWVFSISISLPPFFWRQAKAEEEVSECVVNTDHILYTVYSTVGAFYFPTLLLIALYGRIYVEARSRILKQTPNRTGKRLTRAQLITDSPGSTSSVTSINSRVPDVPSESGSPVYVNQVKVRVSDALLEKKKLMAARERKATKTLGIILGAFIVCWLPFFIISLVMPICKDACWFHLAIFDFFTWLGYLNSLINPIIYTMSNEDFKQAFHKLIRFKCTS
T4 sequence (P28221 whole entry): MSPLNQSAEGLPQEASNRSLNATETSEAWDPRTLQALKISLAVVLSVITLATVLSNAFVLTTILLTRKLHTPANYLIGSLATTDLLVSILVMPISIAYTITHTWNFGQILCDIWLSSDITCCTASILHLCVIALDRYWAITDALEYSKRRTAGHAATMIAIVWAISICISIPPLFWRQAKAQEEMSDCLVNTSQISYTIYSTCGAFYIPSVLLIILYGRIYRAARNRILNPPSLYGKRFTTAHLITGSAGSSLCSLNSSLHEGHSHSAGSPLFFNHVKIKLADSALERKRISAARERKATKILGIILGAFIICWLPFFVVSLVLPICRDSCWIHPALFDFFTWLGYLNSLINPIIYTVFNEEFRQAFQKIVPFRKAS

As to `Cc1cc(C(C)(C)C)cc(C)c1CC1=NCCN1` [XYLOMETAZOLINE], the Ki (commonly a measure of affinity in units of concentration, obtained from inhibition or displacement) was 0.013 µM in series [1] and 0.091 µM in series [2].
`Cc1cc(C(C)(C)C)cc(C)c1CC1=NCCN1Cc1ccccc1` came in with an IC50 in the series filed under Cavia porcellus [3] of 0.4 nM/kg. Moreover, the EC50 (commonly the midpoint of the concentration-response curve) in the series filed under Oryctolagus cuniculus came to 0.78 µM. Besides, the clearance (in general, the volume of plasma or blood freed of the substance per unit of time) in series [4] was 3.46 L/h/kg. Also, the inhibition (in general, how much of the control response was suppressed) in series [5] is 68%. Further, the distribution volume (Vd) (commonly the apparent volume that relates the amount in the body to the concentration in plasma or blood) in series [6] is 7.28 L/kg. Further, the bioavailability (commonly the share of a dose that reaches the circulation, judged against a reference dose that is usually intravenous) in [7] stood at 9.3%. The half-life (usually how long it takes for the measured level to halve) in [8] is 1.64 h.
Consider `Cc1cccc(C)c1CC1=NCCN1`, for which the Selectivity in series [9] was over 4.
With `CNS(=O)(=O)Cc1ccc2[nH]cc(CCN(C)C)c2c1`, the IC50 in the series with Cavia porcellus [10] amounted to 7 nM/kg.
Consider `Clc1cc(I)cc(Cl)c1N=C1NCCN1` [PI-CLONIDINE], for which the Ki came to 0.05 µM in series [11] and 1.98 µM in series [1]. The Selectivity in series [9] worked out at 40.
`Cc1cc(C(C)(C)C)cc(C)c1NC1=NCCN1`: the Selectivity in [9] amounted to 40.
As for `Cc1cc(Br)cc(C)c1N=C1NCCN1`, the inhibitory constant (Ki) in series [11] worked out at 0.054 µM; in series [1], 1.43 µM. In [9], the Selectivity stood at 26.
For `c1ccc(NC2=NCCN2)cc1`, the Ki in [11] and in series [1] was over 30 µM throughout.
As for `Cc1cc(C(C)(C)C)cc(C)c1N=C1NCCN1`, the figures for the Ki in series [11] and in series [1] were 0.0003 µM and 0.012 µM, respectively.
Take `Clc1cccc(Cl)c1NC1=NCCN1`: the inhibition in series [12] and in series [13] was under 5% in each case.
On to `Cc1cc([N+](=O)[O-])cc(C)c1NC1=NCCN1`, for which, in series [9], the Selectivity worked out at 30.
Turning to `Cc1cc([N+](=O)[O-])cc(C)c1N=C1NCCN1`, the values for the Ki in series [11] and in series [1] were 0.33 µM and 10.2 µM, respectively.
As for `CC(C)(C)c1ccc(C2=NCCN2)cc1`, the Ki worked out at 0.105 µM in [11] and 0.091 µM in series [2].
`Cc1cc(C(C)(C)C)cc(C)c1CC1=NCCN1C` returned an IC50 in the series filed under Cavia porcellus [3] of 10 nM/kg. Also, the clearance in series [4] was found to be 3.98 L/h/kg. In series [6], this compound showed a Vd of 3.97 L/kg. This compound also gave a bioavailability in series [7] of 42.1%. This compound returned a half-life in [8] of 0.95 h.
Turning to `Cc1cc(Br)cc(C)c1CC1=NCCN1`, in [9], the Selectivity was determined as 20.
`Cc1cc(C(C)(C)C)cc(C)c1CC1=NCCCN1` yielded an IC50 in the series filed under Cavia porcellus [3] of 5 nM/kg. Moreover, the inhibition constant (Ki) in series [11] was found to be 0.033 µM; in series [1], 4.43 µM. In series [4], the clearance came out at 1.73 L/h/kg. In series [6], the Vd was determined as 1.24 L/kg. In addition, the bioavailability in series [7] is 9.9%. Further, the half-life in [8] amounted to 1.03 h.
Turning to `Cc1cccc(C)c1N=C1NCCN1`, the Ki in series [11] was 2.08 µM; in series [1], over 30 µM. Further, the Selectivity in series [9] is over 10.

For the origin of these results see ChEMBL document CHEMBL1137835, “2-(Anilino)imidazolines and 2-(benzyl)imidazoline derivatives as h5-HT1D serotonin receptor ligands” (Bioorg Med Chem Lett, 2004).
